Data from patent US7863241B2, “Compositions for treatment and prevention of pulmonary conditions” (The Scripps Research Institute, priority 2002, dated 2011).
Entries after “also recorded” stand apart in the source; their conditions may differ. Blank lines part the entries; values can stand above or below the compound they belong to.

Tests used:
[1] = test system: Phospholipase A2 (PLA2); details: 30 min incubation, lavage fluid of rabbit 6015, increasing amounts of inhibitor
[2] = test system: elastase activity in rabbit BAL fluids; assay: Elastase activity in rabbit BAL fluids after addition of serine elastase inhibitor; format: biochemical; details: 100 μg/ml inhibitor added to BAL fluids of six anti-BSA/BSA treated rabbits
Protocol: Six rabbits were treated with 3 mg anti-BSA/kg (rabbits 6098 and 6099) or 5 mg anti-BSA/kg (rabbits 6100-6103) was instilled intratracheally and 10 mg of BSA was given intravenously (6098-6101) to induce respiratory distress. Bronchoalveolar lavage (BAL) fluids were taken from the lungs of these rabbits six hours after the treatment and a colorimetric assay of elastase activity was performed on these BAL fluids. Elastase activity is expressed as the concentration of HNE that gives a corresponding OD at 410 nm. Additionally, the same assay was performed after the addition of 100 μg/ml of a serine elastase inhibitor to the BAL fluids.

[3] = test system: rabbits injured with LPS and PMA; assay: LPS/PMA-induced pulmonary injury in rabbits (ARDS Rabbit Model), terminal lavage analysis; format: in vivo
Protocol: The effects of Model surfactant mixture, the serine elastase inhibitor, and the combination of the two on pulmonary inflammation were evaluated on an ARDS Rabbit Model. These experiments are described in details in Examples 8 to 12. Twenty (20) rabbits were divided into five groups for this study. Pulmonary inflammation was induced in Groups 1-4 rabbits from stimulation by lavaging with bacterial lipopolysaccharide (LPS) and, 3 hours later, with phorbol myristate acetate (PMA). Additionally, as treatment, Group 2 rabbits received Model surfactant mixture, Group 3 rabbits received the serine elastase inhibitor, and Group 4 animals received both Model surfactant mixture and the serine elastase inhibitor. Group 5 rabbits were normal rabbits and were used as control. The animals were sacrificed at six (6) hr., the right lower lobe was lavaged three times and the lavage fluids were pooled (terminal lavage) for each animal. The level of injury and the effect of the treatments were measured by the amount of basement membrane protein fragments and red blood cells found in terminal lavage fluids.
LPS: Minn (List Biological). 5 mg vial. Animals were treated by quantitative lavage leaving 120 μg/kg in 8 ml/kg.
PMA: (Sigma) diluted in saline or Model surfactant mixture to 5 μg/mL Used 20 ml/kg/rabbit for lavage, leaving 20% of the dosage in the animal.
Model surfactant mixture: (Discovery Labs) 10 mg/ml. Use 20 ml/kg/rabbit for lavage, leaving 20% of the dosage in the animal.
Serine Elastase Inhibitor. Elafin (Astra-Zeneca) 3 mg/ml stock, dialyzed against saline to remove azide: 1.3 ml/kg Elafin was administered intravenously at 1.5 hr., 0.33 ml/kg was administered intratracheally (×2 sides) at 3 hr., and 0.66 ml/kg was administered intravenously at 4.5 hr.
Twenty NZW rabbits are divided into five (5) treatment groups with four (4) animals each. Lung injury is induced by two lavages with LPS in saline and one PMA treatment administered by lavage at 3 hr. Serine elastase inhibitor and Model surfactant mixture were separately and jointly tested to ascertain the degree to which these factors could reduce symptoms of inflammation. Treatments received by the different groups are as follows:
Group 1: The animals received two lavages with LPS in saline and one PMA treatment administered by lavage at 3 hr. A dosage of ^125I-BSA was given to the animals intravenously at 5.5 hr. and the animals were sacrificed at 6 hr.
Group 2: The animals received two lavages with LPS in saline, one PMA and Model surfactant mixture treatment administered by lavage at 3 hr. A dosage of ^125I-BSA was given to the animals intravenously at 5.5 hr. and the animals were sacrificed at 6 hr.
Group 3: The animals received two lavages with LPS in saline and one PMA treatment administered by lavage at 3 hr. […]

[4] = molecular target: T1, human neutrophil elastase (HNE) (Homo sapiens, UniProt P08246); assay: Inhibition of HNE by terminal lavage fluid of treated rabbits; format: biochemical; details: 0.02 μg HNE with 50 μl terminal lavage fluid of one representative rabbit per group
T1 sequence (P08246 30-267): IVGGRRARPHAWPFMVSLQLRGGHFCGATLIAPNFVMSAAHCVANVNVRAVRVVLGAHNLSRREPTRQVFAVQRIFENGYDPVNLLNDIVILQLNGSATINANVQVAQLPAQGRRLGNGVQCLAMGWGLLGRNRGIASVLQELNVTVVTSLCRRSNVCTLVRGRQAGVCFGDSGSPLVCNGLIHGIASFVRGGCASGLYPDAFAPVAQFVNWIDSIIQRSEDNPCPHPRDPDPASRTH
Protocol: The presence of elastase inhibitor(s) (or the residual activity) in the terminal lavage fluids prepared as described in Example 8) was tested. 0.02 μg of human neutrophil elastase (HNE), was incubated with 50 μl of terminal lavage fluid of one representative rabbit from each experimental group (Groups 1-5). HNE activities are assayed using the colorimetric assay as described in Example 1. The assay results are presented graphically in FIG. 9.

[5] = molecular target: T1, human neutrophil elastase (HNE); assay: Colorimetric assay of human neutrophil elastase inhibition; format: biochemical
Protocol: A peptide having the following sequence MeO-Suc-Ala-Ala-Pro-Val-pNA (SEQ ID NO:24) was used as an elastase substrate. One hundred (100) μL of a 0.425 mM solution of the SEQ ID NO:24 peptide substrate was placed in a series of microtiter plate wells. Varying amounts of human neutrophil elastase (HNE) were added to the microtiter plate wells. The optical density at 410 nm (OD410) was used to measure elastase activity, and the optical densities observed were plotted versus the amounts of HNE added to generate a standard curve.
To test the ability of a serine elastase inhibitor to inhibit human neutrophil elastase (HNE), a standard amount of 0.125 μg HNE was mixed with increasing amounts of a serine elastase inhibitor before addition of the elastase substrate described in Example 3.
0.02 μg of human neutrophil elastase (HNE), was incubated with 2 mg/ml of Model surfactant mixture, 100 μg/ml of a serine elastase inhibitor, or both Model surfactant mixture and the serine elastase inhibitor together. The HNE activity remaining was assayed using the calorimetric assay described above. The result is represented graphically in FIG. 8.

[6] = test system: rabbits injured with LPS and PMA; assay: LPS/PMA lung injury in rabbits treated with anti-oxidant catalase; format: in vivo, rabbit; details: for Albumin In BALF / BALF RBCs / Compliance / PaCO2 6 hr / PaO2 4.5 hr / PaO2 6 hr / Wet:Dry weight / Gross Pathology / Histologic Pathology: average ± SEM; for Wet:Dry weight: lung; for Gross Pathology / Histologic Pathology: on a scale of 0–4
Protocol: Procedures employed were similar to those used in the foregoing Examples. Lung injury is induced in rabbits (1.0-1.5 kg) by bronchoalveolar lavage (BAL) using 5 μg/ml bacterial LPS in saline at a dosage of 20 ml/kg. At 2.5 hrs after LPS administration, the rabbits received 20 ml/kg phorbol myristate acetate (PMA) by bronchoalveolar lavage. At 2.5 hours after LPS administration, animals in group 1 received the anti-oxidant catalase intratracheally. Animals in group 2 received catalase intratracheally and intravenously. Animals in group 3 received catalase intratracheally and intravenously, as well as 5mg/ml Model Surfactant Mixture (KL4) intratracheally. Animals in group 4 received no further treatment (control). The rabbits were ventilated at PIP […] PEEP 3 cm H2O pressure. The study was terminated at 6 hrs. Values in Tables 6 and 7 are averages+standard error of the mean (SEM).

[7] = catalase IT & IV (combination: plus 5mg/ml Model Surfactant Mixture IT)

Compound: CCc1c(CC(N)=O)c2cc(OCCCP(=O)(O)O)ccc2n1Cc1ccccc1 [LY311727]
PLA2 activity (release of oleic acid from POPG) [1]: decreasing amounts of PLA2 activity were observed

inhibition of HNE activity by terminal lavage fluid [4]: highly significant
HNE activity remaining ([5]; 0.02 μg HNE, Model surfactant mixture 2 mg/ml, serine elastase inhibitor 100 μg/ml): Significant inhibition
HNE activity (OD410) versus log of amount of inhibitor ([5]; 0.125 μg HNE, increasing amounts of inhibitor, in vitro): HNE activity is inhibited in vitro
Compound: Elafin (AQEPVKGPVSTKPGSCPIILIRCAMLNPPNRCLKDTDCPGIKKCCEGSCGMACFVPQ) [serine elastase inhibitor, Elafin (Astra-Zeneca) 3 mg/ml stock, dialyzed against saline]
Elastase activity in BAL fluids after added inhibitor [2]: inhibited in five out of the six BAL fluids; also recorded: In all cases, the elastase activity was inhibited
number of RBCs in terminal lavage fluid ([3]; 6 hr post LPS/PMA injury): greater reduction in injury
amount of protein in terminal lavage fluid ([3]; 6 hr post LPS/PMA injury, versus injured untreated group): failure of group 3, which received elastase inhibitor alone, to show a reduction in protein levels
mean protein value in terminal lavage fluid, one aberrant animal excluded ([3]; Group 3, 6 hr post LPS/PMA injury): 1.72 mg/mL
basement membrane damage (Western blot of basement membrane proteins in BAL fluid) ([3]; terminal lavage fluid, LPS/PMA injured rabbits): Amelioration of the damage in the basement membrane is observed

Compound: catalase
lung function (overall) ([6]; LPS/PMA injured rabbits, study terminated at 6 hrs): significantly improve lung function
Albumin In BALF [6, 7]: 0.50 ± 0.11
BALF RBCs [6, 7]: 2.3 ± 1.2 ×10^3
Compliance [6, 7]: 8.4 ± 0.3 ml at 12 cm H2O/Kg
PaCO2 6 hr [6, 7]: 36 ± 5
PaO2 4.5 hr [6, 7]: 129 ± 19
PaO2 6 hr [6, 7]: 124 ± 22
Wet:Dry weight [6, 7]: 8.0 ± 0.6
Gross Pathology [6, 7]: 1.1 ± 0.4
Histologic Pathology [6, 7]: 2.9 ± 0.8
Albumin In BALF ([6]; catalase IT): 0.65 ± 0.16
BALF RBCs ([6]; catalase IT): 6.1 ± 3.6 ×10^3
Compliance ([6]; catalase IT): 10.1 ± 1.8 ml at 12 cm H2O/Kg
PaCO2 6 hr ([6]; catalase IT): 40 ± 3
PaO2 4.5 hr ([6]; catalase IT): 128 ± 15
PaO2 6 hr ([6]; catalase IT): 119 ± 15
Wet:Dry weight ([6]; catalase IT): 7.4 ± 0.4
Gross Pathology ([6]; catalase IT): 1.6 ± 0.6
Histologic Pathology ([6]; catalase IT): 2.7 ± 0.6
